The results in this text go back to ChEMBL document CHEMBL3124796, “Suzuki coupling based synthesis and in vitro cytotoxic evaluation of 7-heteroaryl-substituted camptothecin analogs” (Bioorg Med Chem Lett, 2014).

Test [1] has as its target T1, DNA topoisomerase 1 (Homo sapiens) (UniProt P11387).
T1 sequence (whole entry): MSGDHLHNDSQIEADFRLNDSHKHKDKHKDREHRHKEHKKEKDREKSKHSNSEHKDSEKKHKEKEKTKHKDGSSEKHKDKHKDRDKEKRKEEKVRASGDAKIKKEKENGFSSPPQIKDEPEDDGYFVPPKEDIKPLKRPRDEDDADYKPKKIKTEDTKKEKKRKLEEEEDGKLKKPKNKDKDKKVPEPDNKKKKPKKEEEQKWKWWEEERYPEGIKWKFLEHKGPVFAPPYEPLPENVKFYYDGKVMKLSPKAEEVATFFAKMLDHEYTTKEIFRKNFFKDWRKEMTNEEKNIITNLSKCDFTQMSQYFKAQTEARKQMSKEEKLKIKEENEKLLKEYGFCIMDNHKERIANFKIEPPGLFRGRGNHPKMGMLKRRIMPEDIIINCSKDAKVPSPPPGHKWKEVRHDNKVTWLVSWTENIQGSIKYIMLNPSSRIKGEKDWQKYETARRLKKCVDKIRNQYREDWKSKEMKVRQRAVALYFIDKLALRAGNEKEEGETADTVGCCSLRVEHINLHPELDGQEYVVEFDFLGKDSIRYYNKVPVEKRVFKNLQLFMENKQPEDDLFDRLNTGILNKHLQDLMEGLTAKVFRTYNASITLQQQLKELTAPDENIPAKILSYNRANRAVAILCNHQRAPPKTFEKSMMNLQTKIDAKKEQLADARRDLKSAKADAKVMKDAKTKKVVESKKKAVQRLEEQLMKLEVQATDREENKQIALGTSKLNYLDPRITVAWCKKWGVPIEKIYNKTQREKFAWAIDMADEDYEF
The experiment in a line: Inhibition of topoisomerase 1 (unknown origin)-mediated relaxation of supercoiled pBR322 DNA at 100 uM by agarose gel electrophoresis.

In another test the test system is HT-29. Put plainly: Cytotoxicity against human HT-29 cells assessed as growth inhibition after 3 days by SRB assay. Format: functional, cell-based. The settings on record: HT-29, 72 h.
In test [2] the test system is HCT-116. The experiment in a line: Cytotoxicity against human HCT116 cells assessed as growth inhibition after 3 days by SRB assay. Format: functional, cell-based. The settings on record: HCT-116, 72 h.
Test [3] concerns A549. Put plainly: Cytotoxicity against human A549 cells assessed as growth inhibition after 3 days by SRB assay. It is filed as functional, cell-based. The settings on record: A549, 72 h.
For test [4], the system named is A549. The experiment in a line: Cytotoxicity against human A549 cells. Format: functional, cell-based.
The subject of test [5] is HCT-116. The experiment in a line: Cytotoxicity against human HCT116 cells. It is filed as functional, cell-based.
Another test deals with MDA-MB-231. The experiment in a line: Cytotoxicity against human MDA-MB-231 cells. It is filed as functional, cell-based.
Test [6] addresses T1, DNA topoisomerase 1 (Homo sapiens). The experiment in a line: Inhibition of topoisomerase 1 (unknown origin)-mediated relaxation of supercoiled pBR322 DNA at 10 uM by agarose gel electrophoresis.

Activity calls are given as the source filed them. No cut-off for these calls is given here.

Take `CC[C@@]1(O)C(=O)OCc2c1cc1n(c2=O)Cc2c-1nc1ccccc1c2-c1cccnc1`: in test [1], the inhibition entry was “inactive”. Also, the IC50 in the test on HT-29 turned out to be 133 nM; in the test on HCT-116 [2], 60 nM; in the test on A549 [3], 5 nM.
For the compound `CC[C@@]1(O)C(=O)OCc2c1cc1n(c2=O)Cc2c-1nc1ccccc1c2-c1ccncc1`, the inhibition result in test [1] is “inactive”. Also, the results for the IC50 in the test on HT-29, in the test with HCT-116 [2] and with A549 [3] were 98.7 nM, 45.5 nM and 6.33 nM, respectively.
Take `CCCCn1cc(-c2c3c(nc4ccccc24)-c2cc4c(c(=O)n2C3)COC(=O)[C@]4(O)CC)nn1`: the IC50 with A549 [4] was under 10 nM; in the test on HCT-116 [5], 14 nM; with MDA-MB-231, under 10 nM.
Turning to `CCc1c2c(nc3ccc(O)cc13)-c1cc3c(c(=O)n1C2)COC(=O)[C@]3(O)CC` [7-ETHYL-10-HYDROXYCAMPTOTHECIN], the IC50 in the test on HT-29 came out at 107 nM; in the test with HCT-116 [2] it was 31 nM; in the test with A549 [3] it was 2.72 nM; in the test on A549 [4], 259 nM; in the test on HCT-116 [5], 166 nM; in the test on MDA-MB-231 it was 176 nM.
With `CC[C@@]1(O)C(=O)OCc2c1cc1n(c2=O)Cc2c-1nc1ccccc1c2-c1cnn(C2CCCCO2)c1` (stereo partly drawn), the inhibition result in test [1] was “Active”. Also, the figures for the IC50 in the test on HT-29, with HCT-116 [2] and in the test on A549 [3] were 90.7 nM, 40 nM and 7.26 nM, respectively.
The like results for `CC[C@@]1(O)C(=O)OCc2c1cc1n(c2=O)Cc2c-1nc1ccccc1c2-c1ccc2cc[nH]c2c1` were, in that order, “Active”, 231 nM, 83.5 nM and 11.1 nM.
On to `CC[C@@]1(O)C(=O)OCc2c1cc1n(c2=O)Cc2c-1nc1ccccc1c2-c1ccnn1C`, for which the inhibition entry in test [1] is “inactive”. The IC50 is over 1000 nM with HT-29, 458 nM in the test on HCT-116 [2] and 56.3 nM in the test with A549 [3].
As to `CC[C@@]1(O)C(=O)OCc2c1cc1n(c2=O)Cc2c-1nc1ccccc1c2-c1cnn(C)c1`, the inhibition result in test [6] and in test [1] was “Active” each time. Moreover, the IC50 in the test with HT-29 stood at 21.8 nM; in the test on HCT-116 [2], 3.51 nM; in the test with A549 [3], 2.85 nM.
On to `CC[C@@]1(O)C(=O)OCc2c1cc1n(c2=O)Cc2c-1nc1ccccc1c2-c1ccc2cn[nH]c2c1`, for which the inhibition result in test [1] was “Active”. In addition, the IC50 in the test with HT-29 was determined as 57 nM; in the test with HCT-116 [2] it was 11 nM; in the test on A549 [3], 3.18 nM.
